# Source: patent EP4643657A1, “COMPOSITIONS CONTAINING SHORT-CHAIN FATTY ACID, METHODS OF USE, AND METHODS OF MAKING THEREOF” (Velocity Life Sciences, LLC, priority 2024, dated 2025)
# “And” between values parts separate entries of the source, which are not always exact repeats. Equal values may be shown once.
# Key:
# [1] = Serum butyrate pharmacokinetics, randomized three-arm crossover trial (Example 5)
# [2] = Visual-analog scales of affect, randomized three-arm crossover trial (Example 5); format: in vivo, human; design: Mood AUC / Alertness AUC / Well-being AUC / Calm and Relaxed AUC / Stressed and Anxious AUC: unit not given here
# Experimental: Experimental Design: This was a randomized, three-arm, crossover trial in which participants visited the laboratory on four occasions (one screening visit and three testing visits). […] Written informed consent was obtained from all subjects prior to enrollment. The study was retrospectively registered on clinicaltrials.gov (#NCT06700785). This study was conducted at The Center for Applied Health Sciences, a contract research organization located in Northeast Ohio. […] VAS assessed subjective ratings of state of well-being, calm and relaxed, stressed and anxious, mood, motivation to perform tasks, level of alertness, and ability to concentrate and were anchored with "Worst possible", "Lowest possible", "Strongly Disagree", or "Best Possible", "Highest Possible", "Strongly Agree". […] Statistical Analyses: Normality was assessed using Q-Q plot and Shapiro-Wilks test. Severe non-normal measures were normalized using log (In) transformation. Serum butyrate concentrations, subjective ratings of affect, and vitals over time between treatments were analyzed using a mixed effects factorial ANOVA . Tukey post hocs were applied if significant main effects/interactions were observed. […] Effect sizes are reported as Cohen's d (with 0.2 considered a small effect, 0.5 considered a medium effect, and 0.8 considered a large effect). All analyses were conducted in GraphPad Prism v.10.4.0.
# [3] = male, human, in vivo
# [4] = Exposure of the prepared salt to air at room temperature (hygroscopicity, storage stability); format: physicochemical
# Excerpt: The L-arginine butyrate prepared using ethanol as the sole solvent was a white to off-white powder.
# The L-lysine butyrate prepared using ethanol as the sole solvent was a light, pale yellow to yellow powder. […] Table 1: Attempted preparation of salts of amino acids and amino acid derivatives of butyric acid.
# [5] = 0 min (prior to ingestion), 100-mm VAS, Mean±SD
# [6] = motivation to perform tasks, 0 min (prior to ingestion), 100-mm VAS, Mean±SD
# [7] = 0-210 min, 786 mg of butyric acid oral, Mean±SD
# [8] = 45 min post ingestion, 786 mg of butyric acid oral, 100-mm VAS, Mean±SD
# [9] = 90 min post ingestion, 786 mg of butyric acid oral, 100-mm VAS, Mean±SD
# [10] = 150 min post ingestion, 786 mg of butyric acid oral, 100-mm VAS, Mean±SD
# [11] = 210 min post ingestion, 786 mg of butyric acid oral, 100-mm VAS, Mean±SD
compound,measurement,setting,value
"CCCC(=O)[O-].[Na+] [Sodium Butyrate, Sodium butyrate]",Tmax comparison between treatments,[1]; Wilcoxon rank test,significantly less than TB
same,AUC0-210 comparison between treatments,[1]; paired samples t-test,significantly greater than TB
same,Cmax comparison between treatments,[1]; paired samples t-test,significantly greater than TB
same,Alertness,[2]; [5],6.4 ± 1.2
same,Calm and Relaxed,[2]; [5],7.6 ± 0.9 cm
same,Concentration,[2]; [5],6.4 ± 1.2 cm
same,Mood,[2]; [5],7.1 ± 1.2 cm
same,Stressed and Anxious,[2]; [5],2.4 ± 1.4 cm
same,Well-being,[2]; [5],7.0 ± 1.2 cm
same,Alertness,"[2]; in vivo, po",6.5 ± 1.6 and 6.8 ± 1.3 and 6.7 ± 1.6 and 7.1 ± 1.8
same,Alertness AUC,"[2]; in vivo, po",1411 ± 293
same,Calm and Relaxed,"[2]; in vivo, po",7.3 ± 1.2 cm and 7.6 ± 1.0 cm and 7.9 ± 1.1^¥ cm and 7.9 ± 1.2 cm
same,Calm and Relaxed AUC,"[2]; in vivo, po",1608 ± 216
same,Concentration,"[2]; in vivo, po",6.4 ± 1.7 cm and 6.6 ± 1.5 cm and 6.5 ± 1.9 cm and 6.9 ± 2.1 cm
same,Concentration AUC,"[2]; in vivo, po",1371 ± 343
same,Mood,"[2]; in vivo, po",7.1 ± 1.1 cm and 7.4 ± 1.2 cm and 7.7 ± 1.0 cm and 7.8 ± 1.2 cm
same,Mood AUC,"[2]; in vivo, po",1558 ± 215
same,Perform Tasks,"[2]; in vivo, po",6.8 ± 1.6 cm and 7.1 ± 1.3 cm and 6.9 ± 1.7 cm and 7.1 ± 1.5 cm
same,Perform Tasks AUC,"[2]; in vivo, po",1452 ± 297
same,Stressed and Anxious,"[2]; in vivo, po",2.3 ± 1.5 cm and 2.3 ± 1.6 cm and 2.1 ± 1.8 cm and 2.0 ± 1.8 cm
same,Stressed and Anxious AUC,"[2]; in vivo, po",466 ± 339
same,Well-being,"[2]; in vivo, po",7.2 ± 1.2 cm and 7.3 ± 1.2 cm and 7.5 ± 1.1 cm and 7.6 ± 1.3 cm
same,Well-being AUC,"[2]; in vivo, po",1543 ± 242
same,Perform Tasks,[2]; [6],6.5 ± 1.4^£ # cm
"CCCC(=O)OCC(COC(=O)CCC)OC(=O)CCC [TB, propane-1,2,3-triyl tributanoate]",Serum Butyrate,[3]; 0 min,0.41 ± 0.71 µg/mL
same,Serum Butyrate AUC0-210,"[3]; po, 786 mg",108 ± 190
same,Serum Butyrate Cmax,"[3]; po, 786 mg",0.91 ± 1.65 µg/mL
same,Ability to concentrate (VAS),[2]; [5],6.9 ± 1.7 cm
same,Alertness,[2]; [5],6.7 ± 1.7
same,Calm and Relaxed,[2]; [5],7.5 ± 1.2 cm
same,Mood,[2]; [5],7.1 ± 1.5^# cm
same,Stressed and Anxious,[2]; [5],2.7 ± 2.0 cm
same,Well-being,[2]; [5],7.4 ± 1.2 cm
same,Alertness AUC,[2]; [7],1481 ± 293
same,Calm and Relaxed AUC,[2]; [7],1571 ± 245
same,Concentration AUC,[2]; [7],1504 ± 315
same,Mood AUC,[2]; [7],1600 ± 214
same,Well-being AUC,[2]; [7],1588 ± 234
same,Stressed and Anxious AUC,"[2]; 0-210 min, 786 mg of butyric acid oral, Mean±SD, raw untransformed data",518 ± 408
same,Ability to concentrate (VAS),[2]; [8],7.1 ± 1.6 cm
same,Alertness,[2]; [8],7.0 ± 1.5
same,Calm and Relaxed,[2]; [8],7.2 ± 1.4 cm
same,Mood,[2]; [8],7.5 ± 1.1^# cm
same,Stressed and Anxious,[2]; [8],2.7 ± 2.2 cm
same,Well-being,[2]; [8],7.6 ± 1.1 cm
same,Ability to concentrate (VAS),[2]; [9],6.9 ± 1.6 cm
same,Alertness,[2]; [9],6.9 ± 1.4
same,Calm and Relaxed,[2]; [9],7.5 ± 1.3 cm
same,Mood,[2]; [9],7.6 ± 1.0^# cm
same,Stressed and Anxious,[2]; [9],2.4 ± 1.9 cm
same,Well-being,[2]; [9],7.6 ± 1.2 cm
same,Alertness,[2]; [10],7.1 ± 1.6^#
same,Calm and Relaxed,[2]; [10],7.5 ± 1.2 cm
same,Concentration,[2]; [10],7.4 ± 1.4^α cm
same,Mood,[2]; [10],7.7 ± 1.0 cm
same,Stressed and Anxious,[2]; [10],2.4 ± 2.0 cm
same,Well-being,[2]; [10],7.5 ± 1.1 cm
same,Ability to concentrate (VAS),[2]; [11],7.5 ± 1.6 cm
same,Alertness,[2]; [11],7.5 ± 1.5
same,Calm and Relaxed,[2]; [11],7.9 ± 1.2 cm
same,Mood,[2]; [11],8.0 ± 1.0 cm
same,Stressed and Anxious,[2]; [11],2.3 ± 2.2 cm
same,Well-being,[2]; [11],7.8 ± 1.2 cm
same,Perform Tasks,[2]; [6],6.9 ± 1.6 cm
same,Perform Tasks AUC,"[2]; motivation to perform tasks, 0-210 min, 786 mg of butyric acid oral, Mean±SD",1505 ± 331
same,Perform Tasks,"[2]; motivation to perform tasks, 45 min post ingestion, 786 mg of butyric acid oral, 100-mm VAS, Mean±SD",7.2 ± 1.3 cm
same,Perform Tasks,"[2]; motivation to perform tasks, 90 min post ingestion, 786 mg of butyric acid oral, 100-mm VAS, Mean±SD",7.1 ± 1.7 cm
same,Perform Tasks,"[2]; motivation to perform tasks, 150 min post ingestion, 786 mg of butyric acid oral, 100-mm VAS, Mean±SD",7.2 ± 1.8 cm
same,Perform Tasks,"[2]; motivation to perform tasks, 210 min post ingestion, 786 mg of butyric acid oral, 100-mm VAS, Mean±SD",7.3 ± 1.9 cm
L-arginine butyrate,Appearance after exposure to air,[4]; 24 hours at room temperature,"formed hard, rock-like clumps"
same,Hygroscopicity,[4]; exposed at room temperature to air,quite hygroscopic
same,Appearance after exposure to air,[4]; seven (7) days at room temperature,"significantly hydrated into, large solid masses"
